For ten compounds, MIC results are on record in DBAASP.

Molecules are shown by their SMILES. Values after ≈ are worked out from the molar mass of the structure shown. Where only a bound is given, the exact number is not on record here.

Test in all cases: ≥ marks a high value that may be exact or a test limit, other limits are often not marked, values filed in µg/mL are converted to µM
Experiment [1] deals with Candida albicans NCPF 1467.
Experiment [2] relates to Escherichia coli NCTC 10418.
Experiment [3] concerns Staphylococcus aureus NCTC 10788.
Experiment [4] has as its system Enterococcus faecalis NCTC 12697.
Experiment [5] relates to Pseudomonas aeruginosa ATCC 27853.
In experiment [6] the test system is Staphylococcus aureus NCTC 12493.
Experiment [7] deals with Pseudomonas aeruginosa ATCC 15692.
For experiment [8], the system named is Salmonella typhimurium KCTC 1926.
The test system of experiment [9] is Escherichia coli ATCC 25922.
The subject of experiment [10] is Klebsiella pneumoniae ATCC 13883.
Experiment [11] concerns Pseudomonas aeruginosa PAO1.
The subject of experiment [12] is Staphylococcus aureus USA 300.
The next experiment deals with Escherichia coli K-12.
For experiment [13], the system named is Acinetobacter baumannii ATCC 19606.
Experiment [14] concerns Candida albicans ATCC 90028.
Experiment [15] concerns Cryptococcus neoformans ATCC 208821.
The subject of experiment [16] is Klebsiella pneumoniae ATCC 700603.
For experiment [17], the system named is Staphylococcus aureus ATCC 43300.
The test system of experiment [18] is Candida albicans ATCC 14053.
For experiment [19], the system named is Enterococcus faecalis ATCC 29212.
In experiment [20] the test system is Staphylococcus aureus ATCC 29213.
The test system of experiment [21] is Clavibacter michiganensis subsp. michiganensis DSM 46294.
Experiment [22] relates to Pectobacterium carotovorum subsp. carotovorum DSM 30168.
The test system of experiment [23] is Pseudomonas corrugata DSM 7228.
The subject of experiment [24] is Pseudomonas syringae pv. syringae DSM 10604.
For experiment [25], the system named is Pseudomonas syringae pv. tomato DC3000.
In experiment [26] the test system is Xanthomonas vesicatoria DSM 50861.

For the compound `CC[C@H](C)[C@H](NC(=O)[C@H](C)NC(=O)[C@H](Cc1cnc[nH]1)NC(=O)[C@@H]1CCCN1C(=O)[C@@H](NC(=O)[C@H](CC(C)C)NC(=O)[C@H](CO)NC(=O)[C@H](Cc1ccccc1)NC(=O)[C@H](CC(C)C)NC(=O)[C@@H](N)Cc1ccccc1)[C@@H](C)CC)C(=O)NCC(=O)NCC(=O)N[C@@H](CC(C)C)C(=O)N[C@H](C(=O)N[C@@H](CO)C(=O)N[C@@H](C)C(=O)N[C@@H](Cc1ccccc1)C(=O)N[C@@H](CCCCN)C(N)=O)[C@@H](C)CC` [FLFSLIPHAIGGLISAFK], the values for the MIC in experiment [1], in experiment [2] and in experiment [3] were at least 64 µM, at least 150 µM and 20 µM (≈ 38.6 µg/mL), respectively.

Regarding `CC[C@H](C)[C@H](NC(=O)CNC(=O)CNC(=O)[C@H](CC(C)C)NC(=O)[C@@H](N)Cc1ccccc1)C(=O)N[C@@H](CC(C)C)C(=O)N[C@@H](CC(N)=O)C(=O)N[C@H](C(=O)N[C@H](C(=O)N[C@H](C(=O)NCC(=O)N[C@@H](CC(C)C)C(=O)N[C@@H](CC(C)C)C(N)=O)[C@@H](C)O)[C@@H](C)CC)[C@@H](C)O` [FLGGILNTITGLL], the MIC in experiment [1] is at least 200 µM; in [3], 30 µM (≈ 39.9 µg/mL).

Consider `CC[C@H](C)[C@H](NC(=O)[C@@H]1CCCN1C(=O)[C@H](CC(C)C)NC(=O)[C@@H](N)Cc1ccccc1)C(=O)N[C@H](C(=O)N[C@@H](C)C(=O)N[C@@H](CCCCN)C(=O)N[C@@H](CC(C)C)C(=O)N[C@@H](CC(C)C)C(=O)N[C@@H](CO)C(=O)NCC(=O)N[C@@H](CC(C)C)C(=O)N[C@@H](CC(C)C)C(=O)NCC(=O)N[C@@H](CCCN=C(N)N)C(=O)N[C@@H](CCCCN)C(=O)N[C@@H](CCCCN)C(=O)N[C@@H](CCCN=C(N)N)C(=O)N[C@@H](CCCN=C(N)N)C(=O)N[C@@H](CCC(N)=O)C(=O)N[C@@H](CCCN=C(N)N)C(=O)N[C@@H](CCCN=C(N)N)C(=O)N[C@@H](CCCN=C(N)N)C(N)=O)C(C)C` [FLPIVAKLLSGLLGRKKRRQRRR], for which the MIC in experiment [1] was 1 µM (≈ 2.76 µg/mL); in [4] it was 2 µM (≈ 5.52 µg/mL); in [2], 2 µM (≈ 5.52 µg/mL); in experiment [5] it was 2 µM (≈ 5.52 µg/mL); in experiment [3] it was 1 µM (≈ 2.76 µg/mL); in experiment [6], 2 µM (≈ 5.52 µg/mL).

Consider `CC[C@H](C)[C@H](NC(=O)CNC(=O)[C@H](Cc1cnc[nH]1)NC(=O)[C@@H](NC(=O)[C@@H](NC(=O)[C@H](CO)NC(=O)CNC(=O)[C@@H](NC(=O)[C@H](Cc1ccccc1)NC(=O)[C@H](CCCN=C(N)N)NC(=O)[C@H](CC(C)C)NC(=O)[C@@H](N)Cc1ccccc1)[C@@H](C)CC)C(C)C)[C@@H](C)CC)C(=O)NCC(=O)N[C@@H](Cc1cnc[nH]1)C(=O)N[C@@H](CC(C)C)C(=O)N[C@H](C(=O)N[C@@H](Cc1cnc[nH]1)C(=O)N[C@@H](Cc1cnc[nH]1)C(=O)N[C@H](C(=O)NCC(=O)N[C@H](C(=O)N[C@@H](C)C(=O)N[C@@H](CC(C)C)C(N)=O)C(C)C)[C@@H](C)CC)C(C)C` [FLRFIGSVIHGIGHLVHHIGVAL], for which the MIC in experiment [7] and in experiment [8] was at least 64 µM each time.

`CC[C@H](C)[C@H](NC(=O)[C@H](CCCCN)NC(=O)[C@H](CCC(N)=O)NC(=O)[C@@H](NC(=O)[C@@H](NC(=O)[C@H](CCCN=C(N)N)NC(=O)[C@H](CCCCN)NC(=O)[C@H](Cc1ccccc1)NC(=O)CN)[C@@H](C)CC)C(C)C)C(=O)N[C@@H](CCCN=C(N)N)C(=O)N[C@@H](CC(=O)O)C(=O)N[C@@H](Cc1ccccc1)C(=O)N[C@@H](CC(C)C)C(=O)N[C@@H](CCCN=C(N)N)C(=O)N[C@@H](CC(N)=O)C(=O)N[C@@H](CC(C)C)C(=O)N[C@H](C(N)=O)C(C)C` [GFKRIVQKIRDFLRNLV]: the MIC was 4.4 µM (≈ 9.25 µg/mL) in experiment [9], 3.1 µM (≈ 6.51 µg/mL) in experiment [10], 25 µM (≈ 52.5 µg/mL) in experiment [11] and 2.2 µM (≈ 4.62 µg/mL) in [12].

For the compound `CC[C@H](C)[C@H](NC(=O)[C@H](C)NC(=O)[C@H](CCC(=O)O)NC(=O)[C@H](Cc1cnc[nH]1)NC(=O)[C@H](CC(C)C)NC(=O)CNC(=O)[C@H](CCC(N)=O)NC(=O)[C@H](Cc1ccccc1)NC(=O)[C@@H](NC(=O)[C@H](CCCCN)NC(=O)[C@H](CCCCN)NC(=O)[C@H](CC(C)C)NC(=O)[C@@H](NC(=O)[C@H](CC(N)=O)NC(=O)[C@H](CC(C)C)NC(=O)CN)[C@@H](C)O)C(C)C)C(=O)N[C@@H](CCCCN)C(=O)N[C@@H](CC(C)C)C(=O)N[C@H](C(=O)N[C@@H](CC(N)=O)C(=O)N[C@@H](CC(N)=O)C(=O)N[C@@H](Cc1cnc[nH]1)C(=O)N[C@H](C(=O)N[C@@H](CCC(N)=O)C(=O)O)C(C)C)[C@@H](C)CC` [GLNTLKKVFQGLHEAIKLINNHVQ], the MIC (with Escherichia coli K-12; in experiment [12]) was at least 100 µM each time.

Consider `CC(C)C[C@H](NC(=O)CNC(=O)[C@H](CO)NC(=O)CNC(=O)[C@H](Cc1cnc[nH]1)NC(=O)[C@H](CCCN=C(N)N)NC(=O)CN)C(=O)NCC(=O)N[C@@H](Cc1cnc[nH]1)C(=O)N[C@@H](CO)C(=O)N[C@@H](CO)C(=O)N[C@@H](CO)C(=O)N[C@@H](Cc1cnc[nH]1)C(=O)NCC(=O)N[C@@H](CCC(N)=O)C(=O)N[C@@H](Cc1cnc[nH]1)C(=O)NCC(=O)N[C@@H](CO)C(=O)NCC(=O)N[C@@H](CO)C(=O)NCC(=O)N[C@@H](CCCN=C(N)N)C(=O)O` [GRHGSGLGHSSSHGQHGSGSGR], for which the MIC in [13] was above 15.2 µM; in [14], 15.2 µM (≈ 32 µg/mL); in [15], 15.2 µM (≈ 32 µg/mL); in experiment [9], above 15.2 µM; in experiment [16] it was above 15.2 µM; in experiment [5], above 15.2 µM. Besides, the minimum inhibitory concentration (MIC) in experiment [17] was above 15.2 µM.

Regarding `CC[C@H](C)[C@H](NC(=O)[C@@H](NC(=O)[C@H](CC(N)=O)NC(=O)[C@H](CO)NC(=O)[C@H](CC(C)C)NC(=O)[C@@H](NC(=O)CN)C(C)C)C(C)C)C(=O)NCC(=O)N[C@@H](Cc1ccc(O)cc1)C(=O)N[C@@H](CC(C)C)C(=O)N[C@@H](CCCCN)C(=O)N[C@@H](CCCCN)C(=O)N[C@@H](CC(C)C)C(=O)NCC(=O)N[C@H](C(=O)NCC(=O)N[C@@H](C)C(=O)N[C@@H](CC(C)C)C(=O)N[C@@H](CC(N)=O)C(=O)N[C@@H](C)C(=O)N[C@H](C(=O)N[C@@H](CC(C)C)C(=O)N[C@@H](CCCCN)C(=O)N[C@@H](CCC(N)=O)C(N)=O)C(C)C)[C@@H](C)O` [GVLSNVIGYLKKLGTGALNAVLKQ], the minimal inhibitory concentration (MIC) in experiment [18] was at least 144 µM; in experiment [19] it was 72 µM (≈ 177 µg/mL); in experiment [9], 25.3 µM (≈ 62.2 µg/mL); in experiment [10] it was 25.3 µM (≈ 62.2 µg/mL); in [5], 144 µM (≈ 353 µg/mL); in experiment [20], 72 µM (≈ 177 µg/mL).

For `CC[C@H](C)[C@H](NC(=O)[C@H](CC(C)C)NC(=O)[C@H](CCCN=C(N)N)NC(=O)[C@H](CCCCN)NC(=O)[C@@H](NC(=O)[C@@H](NC(=O)[C@H](CCCCN)NC(=O)[C@H](CCCCN)NC(=O)[C@H](CCCCN)NC(=O)[C@@H](N)CCCCN)[C@@H](C)CC)[C@@H](C)CC)C(N)=O` [KKKKIIKRLI], the MIC in [21] turned out to be 7.89 µM (≈ 9.99 µg/mL); in experiment [22], 7.89 µM (≈ 9.99 µg/mL); in experiment [23] it was 3.94 µM (≈ 5 µg/mL); in experiment [24], 0.0789 µM (≈ 0.0999 µg/mL); in [25], 0.789 µM (≈ 0.999 µg/mL); in experiment [26], 7.89 µM (≈ 9.99 µg/mL).

As to `CC[C@H](C)[C@H](NC(=O)[C@@H](NC(=O)[C@H](CCCCN)NC(=O)[C@H](CCCCN)NC(=O)[C@@H](NC(=O)[C@@H](NC(=O)[C@H](CCCCN)NC(=O)[C@H](CCCCN)NC(=O)[C@H](CCCCN)NC(=O)[C@H](CCCCN)NC(=O)[C@H](CCCCN)NC(=O)[C@@H](N)CCCCN)[C@@H](C)CC)[C@@H](C)CC)[C@@H](C)CC)C(N)=O` [KKKKKKIIKKII], the MIC is 6.68 µM (≈ 9.99 µg/mL) in [21]; 6.68 µM (≈ 9.99 µg/mL) in [22]; 6.68 µM (≈ 9.99 µg/mL) in experiment [23]; 1.67 µM (≈ 2.5 µg/mL) in experiment [24]; 0.668 µM (≈ 0.999 µg/mL) in experiment [25]; 6.68 µM (≈ 9.99 µg/mL) in experiment [26].
